Measured values taken from patent publication US20030130180A1, “Utilization of an aminopeptidase inhibitor” (priority 2000, published 2003).

Tested on: Karpas cells
Test: Detection of surface protein combinations of the protein network on untreated (V1) and actinonin-treated (V2) Karpas cells
Type: cell-based
Details: actinonin-treated Karpas cells (V2)
Excerpt: Principally, detecting of the surface protein combinations may comprise procedural steps of an automated method for determining molecular classes, molecular groups or molecular parts in a solid or liquid object according to DE 197 09 348 C. In these steps, surface proteins may be examined and measured in one and the same object, i.e. in a sample of immune cells and/or tumor cells for example, by sequentially applying reagent solutions Yn (n=1,2,3, . . . N) by means of an automated apparatus, said procedural steps being: I. taking a first reagent solution Y1 from a vessel containing the reagent solution, II. applying said reagent solution Y1 to the object which is on an object slide, III. allowing the reagent solution to react for an automatically set period of time, IV. recording at least one individual labeling pattern of the object previously labeled with said first reagent solution Y1, V. repeating steps I-IV by applying said first reagent solution Y1 or a second reagent solution Y2 or a mixture of said first and second reagent solutions, and VI. repeating steps I to V with further reagent solutions Yn (n=2,3, . . . N) or a mixture thereof and whereby the labeling distribution patterns obtained in each cycle of the method are turned into a complex molecular combination pattern of the object to be examined by computer-aided image overlay. From this combination pattern, information may be gained on the presence of the above mentioned proteins, thus also allowing detection of the surface protein combinations, if the reagent solutions used contain labeled substances directed against the proteins in question. In numerous examinations, it was possible to identify the 30 cell surface proteins already listed above which belong to a specific protein network controlling the early polarization stages of tumor cells and immune cells. In a further examination, surface protein combinations of this protein network of Karpas cells were detected, both in untreated form and after treatment with the aminopeptidase inhibitor actinonin. For this purpose, two groups V1 and V2 of Karpas cells were formed, with the cells of group Vl remaining untreated, while the cells of group V2 were treated with actinonin. Table 2 lists those surface protein combinations which are present both in the actinonin-treated cells and in the untreated cells. However, this table and the further tables 3 and 4 only give examples of 18 of the 30 proteins, with the detected proteins being designated 1 and the non-detected proteins being designated 0. The proteins are continuously numbered 1 to 18, with the nomenclature being notable from table 1. [table] The cell numbers stated in tables 2 to 4 refer to each 1,000 cells examined in groups V1 and V2. Table 3 lists the surface protein combinations which only occur in the untreated Karpas cells and are never found in the actinonin-treated Karpas cells. The number of protein combinations listed in this table 3 amounts to 131. Finally, table 4 exclusively lists those surface protein combinations which occur exclusively in the actinonin-treated Karpas cells. It may be gathered from tables 2 to 4 that, if one examines merely 18 proteins of the 30 proteins, a total of 394 different surface protein combinations will occur, with a total of 334 different combinations occurring in the untreated cells and a total of 263 different combinations being detected in the treated cells.

Measured: V2 No. of cells In 1/1000

CCCCC[C@H](CC(=O)NO)C(=O)N[C@H](C(=O)N1CCC[C@H]1CO)C(C)C [actinonin]
0.0 1/1000: surface protein combination No. 19, binary code proteins 1-18: 011000011101011100, untreated V1: 0.4 | surface protein combination No. 20, binary code proteins 1-18: 011000011000000000, untreated V1: 0.4 | surface protein combination No. 21, binary code proteins 1-18: 010000001101001100, untreated V1: 0.4 | surface protein combination No. 22, binary code proteins 1-18: 010000001100011100, untreated V1: 0.4 | surface protein combination No. 23, binary code proteins 1-18: 001100011011001000, untreated V1: 0.4 | surface protein combination No. 24, binary code proteins 1-18: 001100011001001000, untreated V1: 0.4 | surface protein combination No. 25, binary code proteins 1-18: 001000010101101000, untreated V1: 0.4 | surface protein combination No. 26, binary code proteins 1-18: 001000010010001000, untreated V1: 0.4 | surface protein combination No. 27, binary code proteins 1-18: 000000000010001000, untreated V1: 0.4 | surface protein combination No. 28, binary code proteins 1-18: 111000011111011100, untreated V1: 0.2 | surface protein combination No. 29, binary code proteins 1-18: 110000011100011100, untreated V1: 0.2 | surface protein combination No. 30, binary code proteins 1-18: 101100000000001100, untreated V1: 0.2 | surface protein combination No. 31, binary code proteins 1-18: 101000111111011000, untreated V1: 0.2 | surface protein combination No. 32, binary code proteins 1-18: 011100011111011100, untreated V1: 0.2 | surface protein combination No. 33, binary code proteins 1-18: 011100011100001000, untreated V1: 0.2 | surface protein combination No. 34, binary code proteins 1-18: 011100001100001100, untreated V1: 0.2 | surface protein combination No. 35, binary code proteins 1-18: 001100000011001000, untreated V1: 0.2 | surface protein combination No. 36, binary code proteins 1-18: 001000011100000000, untreated V1: 0.2 | surface protein combination No. 37, binary code proteins 1-18: 001000010111011100, untreated V1: 0.2 | surface protein combination No. 38, binary code proteins 1-18: 001000010110001000, untreated V1: 0.2 | surface protein combination No. 39, binary code proteins 1-18: 001000001011000000, untreated V1: 0.2 | surface protein combination No. 40, binary code proteins 1-18: 000100010100001000, untreated V1: 0.2 | surface protein combination No. 41, binary code proteins 1-18: 000000011011001000, untreated V1: 0.2 | surface protein combination No. 42, binary code proteins 1-18: 000000010110001000, untreated V1: 0.2 | surface protein combination No. 43, binary code proteins 1-18: 000000010010001000, untreated V1: 0.2 | surface protein combination No. 44, binary code proteins 1-18: 000000000000001100, untreated V1: 0.2 | surface protein combination No. 45, binary code proteins 1-18: 111100101100011000, untreated V1: 0.1 | surface protein combination No. 46, binary code proteins 1-18: 111100011101001100, untreated V1: 0.1 | surface protein combination No. 47, binary code proteins 1-18: 111100011100111100, untreated V1: 0.1 | surface protein combination No. 48, binary code proteins 1-18: 111100011100011000, untreated V1: 0.1 | surface protein combination No. 49, binary code proteins 1-18: 111000011111011000, untreated V1: 0.1 | surface protein combination No. 50, binary code proteins 1-18: 111000011101011000, untreated V1: 0.1 | surface protein combination No. 51, binary code proteins 1-18: 111000001100011100, untreated V1: 0.1 | surface protein combination No. 52, binary code proteins 1-18: 110000001101011100, untreated V1: 0.1 | surface protein combination No. 53, binary code proteins 1-18: 110000001100000100, untreated V1: 0.1 | surface protein combination No. 54, binary code proteins 1-18: 101100011011011000, untreated V1: 0.1 | surface protein combination No. 55, binary code proteins 1-18: 101100010111001100, untreated V1: 0.1 | surface protein combination No. 56, binary code proteins 1-18: 101100010011001000, untreated V1: 0.1 | surface protein combination No. 57, binary code proteins 1-18: 101100000000001000, untreated V1: 0.1 | surface protein combination No. 58, binary code proteins 1-18: 101000110101011000, untreated V1: 0.1 | surface protein combination No. 59, binary code proteins 1-18: 101000011111011100, untreated V1: 0.1 | surface protein combination No. 60, binary code proteins 1-18: 101000011101011000, untreated V1: 0.1 | surface protein combination No. 61, binary code proteins 1-18: 101000010111111000, untreated V1: 0.1 | surface protein combination No. 62, binary code proteins 1-18: 101000010101011100, untreated V1: 0.1 | surface protein combination No. 63, binary code proteins 1-18: 100100110100011100, untreated V1: 0.1 | surface protein combination No. 93, binary code 001100010111111000 | surface protein combination No. 94, binary code 001100010111101100 | surface protein combination No. 95, binary code 001100010100011000 | surface protein combination No. 96, binary code 001100010011001100 | surface protein combination No. 97, binary code 001100010001001100 | surface protein combination No. 98, binary code 001100001101001000 | surface protein combination No. 99, binary code 001100000101000000 | surface protein combination No. 100, binary code 001000111111011000 | surface protein combination No. 101, binary code 001000111101011000 | surface protein combination No. 102, binary code 001000111011011000 | surface protein combination No. 103, binary code 001000011111011100 | surface protein combination No. 104, binary code 001000011101101000 | surface protein combination No. 105, binary code 001000011001011000 | surface protein combination No. 106, binary code 001000011001000100 | surface protein combination No. 107, binary code 001000010111101000 | surface protein combination No. 108, binary code 001000010101000100 | surface protein combination No. 109, binary code 001000010100011000 | surface protein combination No. 110, binary code 001000010011010000 | surface protein combination No. 111, binary code 001000010001011100 | surface protein combination No. 112, binary code 001000001111001000 | surface protein combination No. 113, binary code 001000001011001000 | surface protein combination No. 114, binary code 001000001001001000 | surface protein combination No. 115, binary code 001000001000000000 | surface protein combination No. 116, binary code 001000000110001000 | surface protein combination No. 117, binary code 000100011001000000
